Like-named read-outs stand apart in the source and are kept apart here.
Columns and labels:
[1] = tested on: Hop62 lung cancer cell line; assay: MTT assay, 48 h continuous drug exposure, Hop62; format: cell-based, human; details: lung cancer cell line, 48 h exposure, MTT, read-out: GI50 Hop62
Procedure: (§1) For each compound, dose response curves for each cell line were measured at a minimum of five concentrations at 10 fold dilutions. A protocol of 48 h continuous drug exposure was used and a MTT assay was used to estimate cell viability or growth. The percent of cell growth (GI50) compared with the control was calculated.

[2] = tested on: PC3 prostrate cancer cell line; assay: MTT assay, 48 h continuous drug exposure, PC3; format: cell-based, human; details: prostrate cancer cell line, 48 h exposure, MTT, read-out: GI50 PC3
Procedure: as §1

[3] = tested on: ZR-751 breast cancer cell line; assay: MTT assay, 48 h continuous drug exposure, ZR-751; format: cell-based, human; details: breast cancer cell line, 48 h exposure, MTT, read-out: GI50 ZR-751
Procedure: as §1

[4] = tested on: duplex-form calf thymus DNA (CT-DNA); assay: Thermal denaturation studies with calf thymus DNA (DNA binding affinity); details: [PBD]:[DNA] molar ratio 1:5, CT-DNA 100 μM, ligand 20 μM, sodium phosphate buffer pH 7.00; for (ΔTm ° C.) after incubation at 37° C. for 0 h: 0 h at 37° C.; for (ΔTm ° C.) after incubation at 37° C. for 18 h: 18 h at 37° C.
Procedure: DNA Binding Affinity of Diaryl Ether Linked PBD Hybrids: Compounds have been subjected to thermal denaturation studies with duplex-form calf thymus DNA (CT-DNA) using a modification of a reported procedure (Newman, M. S. Carcinog-compr. Surv. 1976, 1, 203; ([…].; Loy, M.; Hoffman, Carcinog-compr. […] The DNA-PBD solutions have been incubated at 37° C. for 0 and 18 h prior to analysis. […] DNA helix→coil transition temperatures (Tm) have been obtained from the maxima in the d(A260)/dT derivative plots. […] The DNA binding activity for these novel C8-linked diaryl ether PBD hybrids has been examined by thermal denaturation studies using calf thymus (CT) DNA. […] The data for the compounds are included in Table 1 for comparison.

[5] = tested on: MCF7 breast cancer cell line; assay: MTT assay, 48 h continuous drug exposure, MCF7; format: cell-based, human
Procedure: (§2) Some of the C8-linked diaryl ether-PBD hybrids have been tested against eleven human tumour cell lines derived from seven cancer types (lung cancer, colon cancer, cervix, ovarian cancer, oral cancer, prostate cancer and breast cancer) as per Tata protocol as shown in Table 2. For each compound, dose response curves for each cell line were measured at a minimum of five concentrations at 10 fold dilutions. A protocol of 48 h continuous drug exposure was used and a MTT assay was used to estimate cell viability or growth. The percent of cell growth (GI50) compared with the control was calculated. Some of the compounds have been evaluated for their in vitro cytotoxicity in eleven cell lines from seven human cancer types. The results are expressed as GI50 determined relative to that of untreated control cells (Table-2).

[6] = tested on: A2780 ovarian cancer cell line; assay: MTT assay, 48 h continuous drug exposure, A2780; format: cell-based, human; details: ovarian cancer cell line, 48 h exposure, MTT, read-out: GI50 A2780
Procedure: as §1

[7] = tested on: SiHa Cervix cancer cell line; assay: MTT assay, 48 h continuous drug exposure, SiHa; format: cell-based, human; details: Cervix cancer cell line, 48 h exposure, MTT, read-out: GI50 SiHa
Procedure: as §1

[8] = tested on: Gurav oral cancer cell line; assay: MTT assay, 48 h continuous drug exposure, Gurav; format: cell-based, human; details: oral cancer cell line, 48 h exposure, MTT, read-out: GI50 Gurav
Procedure: as §1

[9] = tested on: Colo205 colon cancer cell line; assay: MTT assay, 48 h continuous drug exposure, Colo205; format: cell-based, human
Procedure: as §2

[10] = tested on: DWD oral cancer cell line; assay: MTT assay, 48 h continuous drug exposure, DWD; format: cell-based, human; details: oral cancer cell line, 48 h exposure, MTT, read-out: GI50 DWD
Procedure: as §1

[11] = tested on: A549 lung cancer cell line; assay: MTT assay, 48 h continuous drug exposure, A549; format: cell-based, human
Procedure: as §2

Compound | GI50 [1] | GI50 [2] | GI50 [3] | (ΔTm ° C.) after incubation at 37° C. for 0 h [4] | (ΔTm ° C.) after incubation at 37° C. for 18 h [4] | GI50 ([5]; 48 h exposure) | GI50 [6] | GI50 [7] | GI50 [8] | GI50 ([9]; 48 h exposure) | GI50 [10] | GI50 ([11]; 48 h exposure) | further results
COc1ccc(Oc2ccc(OCCCCCOc3cc4c(cc3OC)C(=O)N3CCC[C@H]3C=N4)cc2I)cc1OC [17c] | 1120 nM | 2560 nM | 3800 nM | 3.9 °C | 4.8 °C | 2600 nM | 2800 nM | 2350 nM | 2270 nM | 2260 nM | 2700 nM | 2450 nM | 
COc1ccc(Oc2cc(OCCCCCOc3cc4c(cc3OC)C(=O)N3CCC[C@H]3C=N4)ccc2I)cc1OC [17g, 7-Methoxy-(8-5-[4-iodo-3-(3,4-dimethoxyphenoxy)phenoxy]pentyloxy)-(11aS)-1,2,3,11a-tetrahydro-5H-pyrrolo[2,1-c][1,4]benzodiazepin-5-one] | 2250 nM | 170 nM | 1950 nM | 4.3 °C | 5.1 °C | < 100 nM | 180 nM | 190 nM | 190 nM | 2200 nM | 180 nM | 1650 nM | 
COc1cc2c(cc1OCCCCCOc1ccc(Oc3cc(OC)c(OC)c(OC)c3)c(I)c1)N=C[C@@H]1CCCN1C2=O [18c] | 2010 nM | 2570 nM | 2780 nM | 4.6 °C | 5.5 °C | 3600 nM | 3100 nM | 2220 nM | 2680 nM | 3120 nM | 3000 nM | 3040 nM | 
COc1ccc(Oc2cccc(OCCCCCOc3cc4c(cc3OC)C(=O)N3CCC[C@H]3C=N4)c2[N+](=O)[O-])cc1 [19g, 7-Methoxy-(8-3-[3-(4-methoxyphenoxy)-2-nitrophenoxy]pentyloxy)-(11aS)-1,2,3,11a-tetrahydro-5H-pyrrolo[2,1-c][1,4]benzodiazepin-5-one] | 2500 nM | 2840 nM | 2500 nM | 4.9 °C | 5.8 °C | 2000 nM | 2300 nM | 1620 nM | 2260 nM | 170 nM | 2300 nM | 2220 nM | 
COc1ccc(Oc2ccc(OCCCCCOc3cc4c(cc3OC)C(=O)N3CCC[C@H]3C=N4)cc2[N+](=O)[O-])cc1OC [20c, 7-Methoxy-(8-3-[4-(3,4-dimethoxyphenoxy)-3-nitrophenoxy]pentyloxy)-(11aS)-1,2,3,11a-tetrahydro-5H-pyrrolo[2,1-c][1,4]benzodiazepin-5-one] | 140 nM | 160 nM | 130 nM | 4.9 °C | 5.6 °C | 140 nM | 140 nM | 2470 nM | 1240 nM | 130 nM | 130 nM | 150 nM | 
COc1ccc(Oc2cccc(OCCCCCOc3cc4c(cc3OC)C(=O)N3CCC[C@H]3C=N4)c2[N+](=O)[O-])cc1OC [20g, 7-Methoxy-(8-3-[3-(3,4-dimethoxyphenoxy)-2-nitrophenoxy]pentyloxy)-(11aS)-1,2,3,11a-tetrahydro-5H-pyrrolo[2,1-c][1,4]benzodiazepin-5-one] | 190 nM | 2250 nM | 190 nM | 4.5 °C | 6.0 °C | 2100 nM | 2000 nM | 2500 nM | 160 nM | 170 nM | 180 nM | 190 nM | 
COc1cccc2c1C(=O)c1c(O)c3c(c(O)c1C2=O)C[C@@](O)(C(=O)CO)C[C@@H]3O[C@H]1C[C@H](N)[C@H](O)[C@H](C)O1 [ADR, adriamycin, reference compound] |  |  |  |  |  |  |  |  |  |  |  |  | GI50 ([1]; Homo sapiens, HOP-62): 150 nM; GI50 ([2]; Homo sapiens): 160 nM; GI50 ([3]; Homo sapiens, ZR-75-1): 110 nM; GI50 ([5]; Homo sapiens, MCF7, 48 h exposure): 130 nM; GI50 ([6]; Homo sapiens, A2780): < 100 nM; GI50 ([7]; Homo sapiens, SiHa): 160 nM; GI50 ([8]; Homo sapiens, Gurav): < 100 nM; GI50 ([9]; Homo sapiens, COLO 205, 48 h exposure): < 100 nM; GI50 ([10]; Homo sapiens): 120 nM; GI50 ([11]; Homo sapiens, A549, 48 h exposure): < 100 nM

Source: patent US8809321B2, “Diaryl ether linked pyrrolo [2,1-c][1,4] benzodiazepine hybrids and process for the preparation thereof” (Council of Scientific and Industrial Research, priority 2011, dated 2014)
